Measured values as given in ChEMBL document CHEMBL3885861, “Open TG-GATES”.

Species on record: Rattus norvegicus
Assay: Open TG-GATES - Regimen: Daily Repeat
Type: toxicity, organism-based, Sprague-Dawley
Design: regimen Daily Repeat, gender Male, age 6 weeks
Conditions: in vivo, po, route gavage; for APTT / Bas / Eos / Fbg / Ht / Lym / MCHC / MCV / Mono / PT / Plat / RBC / Ret / WBC: tissue Blood; for KIDNEY_L / KIDNEY_R / KIDNEY_TOTAL: tissue Kidney; for LIVER: tissue Liver; for ALP / ALT / AST / BUN / CRE / Ca / Cl / DBIL / IP / LDH / Na / PL / RALB / TBIL / TC / TG / TP / gamma-GTP: tissue Plasma
[1] = 0 mg/kg, 72 h, dose level Control, time 3 day
[2] = 0 mg/kg, […], dose level Control, time 7 day
[3] = 0 mg/kg, […], dose level Control, time 14 day
[4] = 0 mg/kg, […], dose level Control, time 28 day
[5] = 40 mg/kg, 72 h, dose level Low, time 3 day
[6] = 40 mg/kg, […], dose level Low, time 7 day
[7] = 40 mg/kg, […], dose level Low, time 14 day
[8] = 40 mg/kg, […], dose level Low, time 28 day

## CC(C)N(CCC(C(N)=O)(c1ccccc1)c1ccccn1)C(C)C (stereo not given) [DISOPYRAMIDE]
[1]
  TERMINAL_BW: 230.2 g
  APTT: 22 s
  Bas: 0%
  Eos: 1.2%
  Fbg: 325.2 mg/dL
  Ht: 39.9%
  Lym: 76.8%
  MCHC: 32%
  MCV: 64.5 fL
  Mono: 2.8%
  PT: 15.8 s
  Plat: 130.4 x10_4/uL
  RBC: 617.8 x10_4/ul
  Ret: 7.1%
  WBC: 99.7 x10_2/uL
  KIDNEY_L: 1 g
  KIDNEY_R: 1 g
  KIDNEY_TOTAL: 2 g
  LIVER: 11 g
  ALP: 1742 IU/L
  ALT: 49.6 IU/L
  AST: 80.8 IU/L
  BUN: 17.6 mg/dL
  CRE: 0.2 mg/dL
  Ca: 10.6 mg/dL
  Cl: 107.2 meq/L
  DBIL: 0 mg/dL
  IP: 7.5 mg/dL
  LDH: 201.8 IU/L
  Na: 143 meq/L
  PL: 140.4 mg/dL
  RALB: 2.9 g/dL
  TBIL: 0 mg/dL
  TC: 71.6 mg/dL
  TG: 88 mg/dL
  TP: 5.5 g/dL
  gamma-GTP: 2 IU/L
[2]
  TERMINAL_BW: 265.2 g
  APTT: 21.6 s
  Bas: 0%
  Eos: 0.8%
  Fbg: 324 mg/dL
  Ht: 39.9%
  Lym: 78%
  MCHC: 32.1%
  MCV: 62.4 fL
  Mono: 2%
  PT: 16.2 s
  Plat: 116.2 x10_4/uL
  RBC: 639.4 x10_4/ul
  Ret: 6.7%
  WBC: 90.3 x10_2/uL
  KIDNEY_L: 1.1 g
  KIDNEY_R: 1.1 g
  KIDNEY_TOTAL: 2.3 g
  LIVER: 13.2 g
  ALP: 1665 IU/L
  ALT: 44 IU/L
  AST: 70.8 IU/L
  BUN: 19 mg/dL
  CRE: 0.2 mg/dL
  Ca: 10.6 mg/dL
  Cl: 106.6 meq/L
  DBIL: 0 mg/dL
  IP: 7.8 mg/dL
  LDH: 199.2 IU/L
  Na: 143.2 meq/L
  PL: 158.6 mg/dL
  RALB: 3 g/dL
  TBIL: 0 mg/dL
  TC: 81.4 mg/dL
  TG: 133.6 mg/dL
  TP: 5.6 g/dL
  gamma-GTP: 2 IU/L
[3]
  TERMINAL_BW: 303.7 g
  APTT: 25.1 s
  Bas: 0%
  Eos: 1%
  Fbg: 319.4 mg/dL
  Ht: 41.9%
  Lym: 80.8%
  MCHC: 33%
  MCV: 58.7 fL
  Mono: 2%
  PT: 15.7 s
  Plat: 113.2 x10_4/uL
  RBC: 715 x10_4/ul
  Ret: 4.4%
  WBC: 124.4 x10_2/uL
  KIDNEY_L: 1.2 g
  KIDNEY_R: 1.3 g
  KIDNEY_TOTAL: 2.5 g
  LIVER: 13.6 g
  ALT: 41.8 IU/L
  AST: 68 IU/L
  BUN: 18.6 mg/dL
  CRE: 0.1 mg/dL
  Ca: 10.3 mg/dL
  Cl: 104.8 meq/L
  DBIL: 0 mg/dL
  IP: 7 mg/dL
  LDH: 142.2 IU/L
  Na: 142.2 meq/L
  PL: 146.4 mg/dL
  RALB: 3 g/dL
  TBIL: 0.004 mg/dL
  TC: 71.2 mg/dL
  TG: 138.2 mg/dL
  TP: 5.7 g/dL
  gamma-GTP: 2.2 IU/L
[4]
  TERMINAL_BW: 406.5 g
  APTT: 24.9 s
  Bas: 0%
  Eos: 1%
  Fbg: 317 mg/dL
  Ht: 42.9%
  Lym: 80%
  MCHC: 33.5%
  MCV: 56.9 fL
  Mono: 2.2%
  PT: 15.7 s
  Plat: 100.4 x10_4/uL
  RBC: 755.2 x10_4/ul
  Ret: 3.4%
  WBC: 136.1 x10_2/uL
  KIDNEY_L: 1.6 g
  KIDNEY_R: 1.6 g
  KIDNEY_TOTAL: 3.1 g
  LIVER: 17.8 g
  ALP: 1292.8 IU/L
  ALT: 36.8 IU/L
  AST: 62.8 IU/L
  BUN: 17.4 mg/dL
  CRE: 0.2 mg/dL
  Ca: 10.4 mg/dL
  Cl: 105 meq/L
  DBIL: 0 mg/dL
  IP: 6.8 mg/dL
  LDH: 199.4 IU/L
  Na: 140.6 meq/L
  PL: 145.4 mg/dL
  RALB: 3.1 g/dL
  TBIL: 0.006 mg/dL
  TC: 70.6 mg/dL
  TG: 181.6 mg/dL
  TP: 6.1 g/dL
  gamma-GTP: 2.2 IU/L
[5]
  TERMINAL_BW: 231.5 g
  APTT: 20.9 s
  Bas: 0%
  Eos: 1.2%
  Fbg: 313.2 mg/dL
  Ht: 39.2%
  Lym: 81.8%
  MCHC: 32.1%
  MCV: 63.9 fL
  Mono: 2.2%
  PT: 16 s
  Plat: 113.5 x10_4/uL
  RBC: 614.4 x10_4/ul
  Ret: 6.2%
  WBC: 87.7 x10_2/uL
  KIDNEY_L: 1.1 g
  KIDNEY_R: 1.1 g
  KIDNEY_TOTAL: 2.1 g
  LIVER: 10.8 g
  ALP: 1494 IU/L
  ALT: 45.4 IU/L
  AST: 75.4 IU/L
  BUN: 15.4 mg/dL
  CRE: 0.2 mg/dL
  Ca: 10.8 mg/dL
  Cl: 107.8 meq/L
  DBIL: 0 mg/dL
  IP: 7.6 mg/dL
  LDH: 188.2 IU/L
  PL: 146.8 mg/dL
  RALB: 3 g/dL
  TBIL: 0 mg/dL
  TC: 73.4 mg/dL
  TG: 122.4 mg/dL
  TP: 5.4 g/dL
  gamma-GTP: 1.8 IU/L
[6]
  TERMINAL_BW: 254.3 g
  APTT: 20.5 s
  Bas: 0%
  Eos: 0.8%
  Fbg: 323.8 mg/dL
  Ht: 40%
  Lym: 83%
  MCHC: 32.7%
  MCV: 61.2 fL
  Mono: 1.8%
  PT: 15.9 s
  Plat: 122.2 x10_4/uL
  RBC: 654 x10_4/ul
  Ret: 6.2%
  WBC: 120.7 x10_2/uL
  KIDNEY_L: 1 g
  KIDNEY_R: 1.1 g
  KIDNEY_TOTAL: 2.1 g
  LIVER: 11.6 g
  ALP: 1528.8 IU/L
  ALT: 48.2 IU/L
  AST: 72.2 IU/L
  BUN: 16.4 mg/dL
  CRE: 0.1 mg/dL
  Ca: 10.4 mg/dL
  Cl: 106.8 meq/L
  DBIL: 0.002 mg/dL
  IP: 7.7 mg/dL
  LDH: 149.8 IU/L
  Na: 143.2 meq/L
  PL: 141.6 mg/dL
  RALB: 2.9 g/dL
  TBIL: 0 mg/dL
  TC: 73.4 mg/dL
  TG: 115.6 mg/dL
  TP: 5.4 g/dL
  gamma-GTP: 1.8 IU/L
[7]
  TERMINAL_BW: 308.2 g
  APTT: 23.9 s
  Bas: 0%
  Eos: 1%
  Fbg: 310.6 mg/dL
  Ht: 41.1%
  Lym: 80.6%
  MCHC: 32.8%
  MCV: 59.7 fL
  Mono: 2.2%
  PT: 15.3 s
  Plat: 109 x10_4/uL
  RBC: 688.2 x10_4/ul
  Ret: 4.9%
  WBC: 113.4 x10_2/uL
  KIDNEY_L: 1.3 g
  KIDNEY_R: 1.3 g
  KIDNEY_TOTAL: 2.6 g
  LIVER: 14.7 g
  ALP: 1255.8 IU/L
  ALT: 47.8 IU/L
  AST: 75 IU/L
  BUN: 16.8 mg/dL
  CRE: 0.2 mg/dL
  Ca: 10.4 mg/dL
  Cl: 104.8 meq/L
  DBIL: 0 mg/dL
  IP: 7.6 mg/dL
  LDH: 225 IU/L
  Na: 141.6 meq/L
  PL: 147 mg/dL
  RALB: 3.1 g/dL
  TBIL: 0.01 mg/dL
  TC: 73.6 mg/dL
  TG: 131 mg/dL
  TP: 5.7 g/dL
  gamma-GTP: 2.2 IU/L
[8]
  TERMINAL_BW: 375 g
  APTT: 25.5 s
  Bas: 0%
  Eos: 1.2%
  Fbg: 320.2 mg/dL
  Ht: 43.3%
  Lym: 81%
  MCHC: 33.8%
  MCV: 55.7 fL
  Mono: 2.2%
  PT: 15.4 s
  Plat: 110.5 x10_4/uL
  RBC: 776.4 x10_4/ul
  Ret: 2.6%
  WBC: 121.1 x10_2/uL
  KIDNEY_L: 1.4 g
  KIDNEY_R: 1.4 g
  KIDNEY_TOTAL: 2.7 g
  LIVER: 16 g
  ALP: 1094 IU/L
  ALT: 40 IU/L
  AST: 64.6 IU/L
  BUN: 17.4 mg/dL
  CRE: 0.2 mg/dL
  Ca: 10.5 mg/dL
  Cl: 106.4 meq/L
  DBIL: 0 mg/dL
  IP: 6.3 mg/dL
  LDH: 158.6 IU/L
  Na: 140.6 meq/L
  PL: 158 mg/dL
  RALB: 3.1 g/dL
  TBIL: 0.004 mg/dL
  TC: 70 mg/dL
  TG: 205 mg/dL
  TP: 6.1 g/dL
  gamma-GTP: 2.2 IU/L
120 mg/kg, 72 h, dose level Middle, time 3 day
  TERMINAL_BW: 227.1 g
